How the values were obtained:
[1] = test system: subjects with schizophrenia; assay: Tolerability in subjects with schizophrenia; type: in vivo, human; conditions: doses up to 25 mg QD, including 10 mg QD and 25 mg QD
[2] = test system: AD; assay: Phase 2a study, symptomatic treatment of AD; type: in vivo, human
[3] = test system: MPTP-lesioned monkeys; assay: Cognitive testing, object retrieval task; type: in vivo, squirrel monkeys (Saimiri sciureus); conditions: for Attempts / Latency: 90 min after first L-dopa gavage, mean ± SEM, 5 monkeys
Source text: To evaluate cognitive performance, an object retrieval task was used that measures a component of prefrontal cortex dependent cognitive control involving inhibition of an initial learned response after subsequent spatial reversals (Lyons et al. 2000, Lyons et al. 2004, Zhang et al. 2013). The apparatus used consists of a clear Plexiglas box (8×8×8 cm) with one open side, containing a small piece of marshmallow (Lyons et al. 2000, Lyons et al. 2004). The box is locked into place on a metallic platform hooked onto the front of the monkey cage. Control and MPTP-lesioned monkeys were scored for the average time and number of trials required to retrieve the marshmallow in 30 sec. The effect of ABT-126 administration was tested once weekly on Friday. […] These latter two sets of monkeys had previously been given ABT-894 and ABT-107 but using somewhat different treatment regimens. The present study was done after a 7 wk washout period, at which point LIDs were similar in all groups. ABT-126 was administered orally in a small cracker 30 min before L-dopa/carbidopa twice daily. […] It was provided in the drinking water starting at 50 μg/ml for 2 days, increased to 150 μg/ml for another two days and then maintained at 300 μg/ml. ABT-126 was tested at 0.03, 0.10, 0.30 and 1.0 mg/kg, with each dose of ABT-126 tested for 1 or 2 wk. Statistical analyses were done using GraphPad Prism. One- or two-way ANOVA was used for multiple group comparisons followed by a Newman-Keuls or Bonferroni post hoc test. Differences in rating scores between groups were analyzed using nonparametric tests (Mann-Whitney test). Data for rating scores was provided as the median (nonparametric) or mean±SEM (parametric). A value of P ≦0.05 is considered statistically significant. Values expressed are the mean±SEM of the indicated number of monkeys.

[4] = test system: MPTP-lesioned monkeys; assay: Parkinsonian ratings in MPTP-lesioned monkeys; type: in vivo, squirrel monkeys (Saimiri sciureus); conditions: for Parkinsonian scores Before L-dopa: 45 min before L-dopa; for Parkinsonian scores Before L-dopa / Parkinsonian scores After L-dopa: mean ± SEM, 5 monkeys; for Parkinsonian scores After L-dopa: 90 min after L-dopa (10 mg/kg)/carbidopa (2.5 mg/kg)
Source text: After quarantine, all monkeys were trained to perform various motor and other tasks for future assessment of parkinsonism and other behaviors (Quik et al. 2013b, Zhang et al. 2013, Quik et al. 2007, Quik et al. 2013a). […] Sigma-Aldrich, St. Louis, Mo.) dissolved in saline (n=21), as described (Quik et al. 2013b, Zhang et al. 2013, Quik et al. 2007, Quik et al. 2013a). […] These include spatial hypokinesia (use of available cage space), body bradykinesia (slowness in body movement), manual dexterity in both left and right hands, balance (ability to hold on to the cage bars), freezing, and action tremor as described (Quik et al. 2013b, Zhang et al. 2013, Quik et al. 2007, Quik et al. 2013a). MPTP injections were repeated (1.5-1.9 mg/kg sc per time) if the monkeys were not parkinsonian and to maintain parkinsonism. Parkinsonism was rated once weekly on Monday. […] These latter two sets of monkeys had previously been given ABT-894 and ABT-107 but using somewhat different treatment regimens. The present study was done after a 7 wk washout period, at which point LIDs were similar in all groups. […] It was provided in the drinking water starting at 50 μg/ml for 2 days, increased to 150 μg/ml for another two days and then maintained at 300 μg/ml. ABT-126 was tested at 0.03, 0.10, 0.30 and 1.0 mg/kg, with each dose of ABT-126 tested for 1 or 2 wk. Statistical analyses were done using GraphPad Prism. One- or two-way ANOVA was used for multiple group comparisons followed by a Newman-Keuls or Bonferroni post hoc test. Differences in rating scores between groups were analyzed using nonparametric tests (Mann-Whitney test). Data for rating scores was provided as the median (nonparametric) or mean±SEM (parametric). A value of P ≦0.05 is considered statistically significant. Values expressed are the mean±SEM of the indicated number of monkeys.

[5] = test system: MPTP-lesioned monkeys; assay: L-dopa-induced dyskinesias (LIDs) ratings in MPTP-lesioned monkeys; type: in vivo, squirrel monkeys (Saimiri sciureus)
Source text: The objective of the current study was to test the effect of the α7 nAChR agonist ABT-126 for its ability to reduce L-dopa-induced dyskinesias (LIDs) in MPTP-lesioned monkeys. […] All monkeys were orally gavaged with L-dopa/carbidopa twice daily, which led to the development of stable abnormal involuntary movements or dyskinesias. […] These latter two sets of monkeys had previously been given ABT-894 and ABT-107 but using somewhat different treatment regimens. The present study was done after a 7 wk washout period, when LIDs were similar in all groups. ABT-126 was administered orally in a small cracker 30 min before L-dopa (10 mg/kg) and carbidopa (2.5 mg/kg). […] ABT-126 was tested at 0.03, 0.10, 0.30 and 1.0 mg/kg, with each dose of ABT-126 tested for 1 or 2 wk. […] ABT-126 at 0.10 mg/kg reduced LIDs by ˜40%, while the 0.30 and 1.0 mg/kg ABT-126 doses decreased LIDs up to 60%. We also tested the effect of ABT-126 (1.0 mg/kg) for its ability to reduce LIDs at a higher dose of L-dopa (15 mg/kg)/carbidopa (3.75 mg/kg). The higher dose of L-dopa led to greater LID scores in vehicle treated monkeys. […] The effect of ABT-126 was most pronounced during the latter weeks, possibly because of a greater decline with continued drug treatment. A washout is in progress to determine if LIDs return to vehicle-treated levels after ABT-126 discontinuation. There was no effect of the drug on parkinsonism or cognitive ability. Adult male and female squirrel monkeys (Saimiri sciureus) (n=21) weighing 0.6-1.2 kg were obtained from World Wide Primates (Miami, Fla.). The monkeys were quarantined for one month, as mandated by California state regulations. All studies were performed according to the NIH Guide for the Care and Use of Laboratory Animals, and were approved by the Institutional Animal Care and Use Committee at SRI. Animals were housed separately in a room maintained at 27±3° C., with a 12:12-h light/dark cycle. Monkey chow, fruits, and vegetables were provided over the course of the day, with water freely available. After quarantine, all monkeys were trained to perform various motor and other tasks for future assessment of parkinsonism and other behaviors (Quik et al. 2013b, Zhang et al. 2013, Quik et al. 2007, Quik et al. 2013a). They were then injected with saline (n=5) or 2.0 mg/kg 1-methyl-4-phenyl-1,2,3,6-tetrahydropyridine sc (MPTP; Sigma-Aldrich, St. Louis, Mo.) dissolved in saline (n=21), as described (Quik et al. 2013b, Zhang et al. 2013, Quik et al. 2007, Quik et al. 2013a). […] These include spatial hypokinesia (use of available cage space), body bradykinesia (slowness in body movement), manual dexterity in both left and right hands, balance (ability to hold on to the cage bars), freezing, and action tremor as described (Quik et al. 2013b, Zhang et al. 2013, Quik et al. 2007, Quik et al. 2013a). MPTP injections were repeated (1.5-1.9 mg/kg sc per time) if the monkeys were not parkinsonian and to maintain parkinsonism. Parkinsonism was rated once weekly on Monday. The monkeys were next orally gavaged with L-dopa (10 mg/kg) plus carbidopa (2.5 mg/kg), twice daily 4.5 h apart 5 d per wk, as described (Quik et al. 2013b, Zhang et al. 2013, Quik et al. 2007, Quik et al. 2013a). While treated with L-dopa, monkeys were given only fruits and vegetables in the morning to enhance L-dopa absorption. Monkey chow, as well as more fruits and vegetables, were given several hours after the second dose of L-dopa. The monkeys were taped from 8:00 to 8:30 AM, before the first dose of L-dopa to evaluate baseline movements and then from 8:30 to 12:30 PM, following the morning L-dopa dose, to evaluate dyskinesias. LIDs were rated from the video recordings for a 1 min period every 30 min. […]

[6] = 0.3 mg/kg ABT-126 orally, set 1
[7] = 0.3 mg/kg ABT-126 orally, set 2
[8] = ABT-126 orally, MPTP-lesioned L-dopa-treated monkeys
[9] = 0.03 mg/kg ABT-126 orally, set 1
[10] = 0.03 mg/kg ABT-126 orally, set 2
[11] = ABT-126 1.0 mg/kg orally, higher L-dopa (15 mg/kg)/carbidopa (3.75 mg/kg), wk 6
[12] = 300 μg/ml nicotine in the drinking water

Compound: c1ccc(-c2nnc(O[C@@H]3C4CC5C[C@H]3C[N@](C5)C4)s2)cc1 [ABT-126, (4s)-4-(5-phenyl-1,3,4-thiadiazol-2-yloxy)-1-azatricyclo[3.3.1.1^3,7]decane]
- tolerability [1]: well tolerated
- efficacy in the symptomatic treatment of AD [2]: signal for efficacy
- Attempts [3, 6]: 22.8 ± 3.2
- Latency [3, 6]: 21.2 ± 2.8 s
- Attempts [3, 7]: 18.0 ± 2.5
- Latency [3, 7]: 18.3 ± 3.3 s
- effect on cognitive ability [3, 8]: no effect
- Parkinsonian scores Before L-dopa [4, 9]: 4.2 ± 0.4
- Parkinsonian scores After L-dopa [4, 9]: 2.6 ± 0.4
- Parkinsonian scores Before L-dopa [4, 10]: 3.4 ± 0.7
- Parkinsonian scores After L-dopa [4, 10]: 2.2 ± 0.2
- effect on parkinsonism [4, 8]: no effect
- effect on LIDs ([5]; ABT-126 0.03 mg/kg orally 30 min before L-dopa (10 mg/kg)/carbidopa (2.5 mg/kg)): no significant effect
- reduction of LIDs ([5]; ABT-126 0.10 mg/kg orally 30 min before L-dopa (10 mg/kg)/carbidopa (2.5 mg/kg)): ~40%
- hourly time course of LIDs, FIG. 2 ([5]; ABT-126 0.3 mg/kg): maximal decline
- decrease of LIDs ([5]; ABT-126 0.30 mg/kg orally 30 min before L-dopa (10 mg/kg)/carbidopa (2.5 mg/kg)): up to 60%
- decrease of LIDs ([5]; ABT-126 1.0 mg/kg orally 30 min before L-dopa (10 mg/kg)/carbidopa (2.5 mg/kg)): up to 60%
- reduction of LIDs after the afternoon dose of L-dopa [5, 11]: 60%
- reduction of LIDs after the morning dose of L-dopa [5, 11]: 70%
- decrease of LIDs, total dyskinesia scores (% vehicle), FIG. 1 ([5]; increasing doses of ABT-126 (0.03 to 1.0 mg/kg), each for a wk, L-dopa 10 mg/kg plus carbidopa 2.5 mg/kg): ≤ 70%

Compound: CN1CCCC1c1cccnc1 (stereo not drawn) [Nicotine, nicotine, reference compound]
- Attempts [3, 12]: 23.8 ± 2.8
- Latency [3, 12]: 19.2 ± 2.2 s
- Parkinsonian scores Before L-dopa [4, 12]: 3.6 ± 0.4
- Parkinsonian scores After L-dopa [4, 12]: 2.4 ± 0.4
